From patent EP0162422A2, “The novel physiologically active substance foroxymithine, a process and microorganisms for its production and its use as medicament” (MICROBIAL CHEMISTRY RESEARCH FOUNDATION, priority 1984, dated 1985)

Assays:
[1] = test system: spontaneous hypertensive rats (SH rats); experiment: Effect on blood pressure in spontaneous hypertensive rats after oral administration; format: in vivo
Procedure: This Example illustrates the effect of foroxymithine on blood pressure in spontaneous hypertensive rats (SH rate).
SH rats weighing 320 to 358 g were orally administered foroxymithine dihydrate as an aqueous solution at do- see of 12.5, 25 and 50 mg/kg. After the administration, blood pressure was measured at certain time intervals. Changes in blood pressure in the foroxymithine- administered group were compared with those in the control group orally administered distilled water only.

mice = experiment: Acute toxicity studies in mice; format: in vivo; settings: 800 mg/kg i.v.
Source text: Foroxymithine is therefore a low-toxicity substance.

[2] = target: T1, angiotensin I converting enzyme (Bos taurus, UniProt P12820); experiment: Anti-angiotensin I converting enzyme activity (modified Hayakari method, hippuryl-L-histidyl-L-leucine substrate, absorbance at 382 nm); format: biochemical, bovine; settings: material from the purification steps of Examples 2 and 3; read-out: angiotensin I converting enzyme inhibitory activity (IC50) (converted)
T1 construct: obtained from a bovine lung and partially purified; from tissue; host or cells: bovine lung
T1 sequence (P12820 29-1306): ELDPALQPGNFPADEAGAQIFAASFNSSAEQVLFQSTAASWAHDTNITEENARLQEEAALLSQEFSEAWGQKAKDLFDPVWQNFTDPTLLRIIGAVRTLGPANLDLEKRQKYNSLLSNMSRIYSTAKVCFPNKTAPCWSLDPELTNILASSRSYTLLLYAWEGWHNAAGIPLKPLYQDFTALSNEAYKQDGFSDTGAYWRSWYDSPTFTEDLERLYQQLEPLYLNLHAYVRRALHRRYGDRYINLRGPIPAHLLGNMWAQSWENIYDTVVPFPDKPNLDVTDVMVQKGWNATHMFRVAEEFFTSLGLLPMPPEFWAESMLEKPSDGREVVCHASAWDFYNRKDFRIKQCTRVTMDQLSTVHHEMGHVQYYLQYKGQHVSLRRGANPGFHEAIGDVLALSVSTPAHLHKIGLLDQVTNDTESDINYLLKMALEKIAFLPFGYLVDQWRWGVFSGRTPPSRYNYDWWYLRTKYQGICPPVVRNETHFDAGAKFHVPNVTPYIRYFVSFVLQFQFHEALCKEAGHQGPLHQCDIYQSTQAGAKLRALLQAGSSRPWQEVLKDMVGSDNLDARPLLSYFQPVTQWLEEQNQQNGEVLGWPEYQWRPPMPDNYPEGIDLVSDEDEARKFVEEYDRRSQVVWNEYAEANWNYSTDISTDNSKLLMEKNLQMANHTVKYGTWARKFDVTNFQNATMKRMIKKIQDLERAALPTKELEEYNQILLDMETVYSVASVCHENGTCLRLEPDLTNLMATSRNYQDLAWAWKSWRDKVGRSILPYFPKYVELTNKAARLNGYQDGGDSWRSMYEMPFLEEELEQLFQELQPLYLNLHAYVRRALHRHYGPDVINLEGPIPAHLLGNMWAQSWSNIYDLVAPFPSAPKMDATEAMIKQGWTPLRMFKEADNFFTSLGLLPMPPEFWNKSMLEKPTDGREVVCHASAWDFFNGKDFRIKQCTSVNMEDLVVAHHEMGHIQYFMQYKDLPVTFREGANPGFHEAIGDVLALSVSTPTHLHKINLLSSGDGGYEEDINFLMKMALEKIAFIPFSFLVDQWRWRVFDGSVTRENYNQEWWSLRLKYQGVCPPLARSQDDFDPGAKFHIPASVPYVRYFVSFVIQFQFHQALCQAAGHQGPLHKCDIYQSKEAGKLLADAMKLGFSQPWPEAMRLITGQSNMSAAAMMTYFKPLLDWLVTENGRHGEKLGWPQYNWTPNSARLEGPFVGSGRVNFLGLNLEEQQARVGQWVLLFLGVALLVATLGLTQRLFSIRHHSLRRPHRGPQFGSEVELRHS
Procedure: Follow-up of foroxymithine during the cultivation step and the purification step was performed in accordance with the determination of anti-angiotensin I converting enzyme activity by the method to be described below.
Anti-angiotensin I converting enzyme activity was determined by a modification of the angiotensin I converting enzyme determination technique described in M. Hayakari et al., Analytical Biochemistry Vol. 84, pages 361-369 (1978). Hippuryl-L-histidyl-L-leucine as a substrate was dissolved at a concentration of 5 mg/ml in Tris-hydrochloride buffer (0.5M, pH 8.0) containing 0.3M sodium chloride. 0.40 ml of a solution containing a test material was added to 0.05 ml of the resulting solution. The mixture was heated at 37'C for 3 minutes. Then, 0.05 ml of a solution containing angiotensin I converting enzyme that had been obtained from a bovine lung and partially purified was added, and the mixture was reacted for 30 minutes at 37.C. […] After the system was allowed to stand for 15 minutes at room temperature, its absorbance (termed absorbance (a)) at 382 nm was measure. […] The reaction system as the control was measured for absorbance, which was termed absorbance (b). The angiotensin I converting enzyme inhibition rate (%) was calculated from the equation (b-a)/b x 100. […]

[3] = oral dose 12.5 mg/kg, 1 hour after administration
[4] = oral dose 12.5 mg/kg, 3 hours after administration
[5] = oral dose 12.5 mg/kg, 6 hours after administration
[6] = oral dose 12.5 mg/kg, 24 hours after administration
[7] = oral dose 50.0 mg/kg, 1 hour after administration
[8] = oral dose 50.0 mg/kg, 3 hours after administration
[9] = oral dose 50.0 mg/kg, 6 hours after administration
[10] = oral dose 50.0 mg/kg, 24 hours after administration

CC(=O)NC(CCCN(O)C=O)C(=O)NC(CO)C(=O)N(O)CCCC1NC(=O)C(CCCN(O)C=O)NC1=O (stereo not drawn) [Foroxymithine dihydrate, foroxymithine]
Mean blood pressure ± S.D. [1, 3]: 180 ± 0.7 mmHg | decrease in blood pressure [1, 3]: 14.3% | Mean blood pressure ± S.D. [1, 4]: 190 ± 28.2 mmHg | decrease in blood pressure [1, 4]: 9.5% | Mean blood pressure ± S.D. [1, 5]: 200 ± 14.1 mmHg | decrease in blood pressure [1, 5]: 4.8% | Mean blood pressure ± S.D. [1, 6]: 210 ± 14.1 mmHg | decrease in blood pressure [1, 6]: 0% | Mean blood pressure ± S.D. ([1]; oral dose 12.5 mg/kg, before administration): 210 ± 0.7 mmHg | Mean blood pressure ± S.D. [1, 7]: 160 ± 7.0 mmHg | decrease in blood pressure [1, 7]: 23.8% | Mean blood pressure ± S.D. [1, 8]: 153 ± 3.5 mmHg | decrease in blood pressure [1, 8]: 27.1% | Mean blood pressure ± S.D. [1, 9]: 193 ± 10.6 mmHg | decrease in blood pressure [1, 9]: 8.1% | Mean blood pressure ± S.D. [1, 10]: 213 ± 3.5 mmHg | decrease in blood pressure [1, 10]: -1.4% | Mean blood pressure ± S.D. ([1]; oral dose 50.0 mg/kg, before administration): 210 ± 0.0 mmHg | effect on blood pressure ([1]; spontaneous hypertensive rats (SH rats), oral, conclusion in words): lower blood pressure | deaths (acute toxicity) (mice): no deaths | IC50 [2]: 12.2 µM
